Data on 17 molecules can be found in PMC6930582, “Synthesis and Evaluation of Novel 2H-Benzo[e]-[1,2,4]thiadiazine 1,1-Dioxide Derivatives as PI3Kδ Inhibitors” (Molecules, 2019).

“Also recorded” adds a separate entry of the source. Read-outs that look alike come from different tables or passages of the source.

One data set addresses PI3Kδ (Homo sapiens, UniProt O00329). The experiment in a line: PI3Kδ kinase assay (ADP-Glo luminescent assay). The following applies: for IC50: ADP-Glo, mean ± SD from two separate experiments, Table 1 and text, read-out: PI3Kδ inhibitory activity IC50; for PI3Kδ inhibitory activity (in words): qualitative statement; for decrease in PI3Kδ potency on introduction of 7-fluorine: compared with the non-fluorinated analogue. It is filed as biochemical. On the technique in general: In ADP-Glo the light output rises with the ADP produced.

For data set [1], the target named is T1, PI3Kα (Homo sapiens, UniProt P42336). The experiment in a line: PI3Kα kinase assay (kinase-Glo luminescent assay). It is filed as biochemical. The following applies: for IC50: kinase-Glo, mean ± SD from two separate experiments.
Data set [2] addresses T2, PI3Kβ (Homo sapiens, UniProt P42338). The experiment in a line: PI3Kβ kinase assay (ADP-Glo luminescent assay). The following applies: for IC50: ADP-Glo, mean ± SD from two separate experiments. It is filed as biochemical.
Data set [3] concerns the target T3, PI3Kγ (Homo sapiens, UniProt P48736). Briefly: PI3Kγ kinase assay (ADP-Glo luminescent assay). It is filed as biochemical. The following applies: mean ± SD from two separate experiments.
Another data set has as its system SU-DHL-6 cells. Briefly: SU-DHL-6 cell proliferation assay (CellTiter-Glo). It is filed as cell-based, human. The following applies: for GI50: Homo sapiens, SU-DHL-6 cell growth inhibition, CellTiter-Glo, mean ± SD from two separate experiments; for SU-DHL-6 cell proliferation inhibition (in words): qualitative statement. As to the method:
The selective PI3Kδ inhibitors 15a and 15b were further evaluated for their antiproliferative activity against human B-cell SU-DHL-6.
Cell proliferation was evaluated by The CellTiter-Glo luminescent cell viability assay (Promega, Shanghai, China) was used to evaluate the inhibitory activity of compounds 15a and 15b following the manufacturer’s protocol. In brief, SU-DHL-6 (ATCC) cells were seeded in 96-well plates (Corning, Los Altos, MA, USA) at density of 1 × 10^4 cells per well, and incubated with medium alone or with the tested compounds at the indicated concentrations (50 μM in DMSO, 3-fold dilution, in duplicate for 10 concentrations). 50 μL CellTiter-Glo (Promega, Shanghai, China) reagent was added to each well to induce cell lysis, and the plate was incubated at room temperature for 10 min to stabilize luminescent signal. After 100 μL of the mixture from each well was transferred to a new 96-well black plate, the […] signal was read on EnVision (Shanghai, China) and the data were analysized by XLFit 4 software (IDBS, Berlin, Germany).
(In general: Cellular ATP, detected with luciferase, serves as a proxy for viable cell number.)

The target of data set [4] is T3, PI3Kγ. More on the design: method as in PMID 29601991. The following applies: quinazolinone leads, previous work; ref [33]; cited from earlier work.
In data set [5] the target is T1, PI3Kα. Details: method as in PMID 29601991. The following applies: quinazolinone leads, previous work; ref [33]; cited from earlier work.
Data set [6] addresses T2, PI3Kβ. Details: method as in PMID 29601991. The following applies: quinazolinone leads, previous work; ref [33]; cited from earlier work.

T3 sequence (P48736 whole entry): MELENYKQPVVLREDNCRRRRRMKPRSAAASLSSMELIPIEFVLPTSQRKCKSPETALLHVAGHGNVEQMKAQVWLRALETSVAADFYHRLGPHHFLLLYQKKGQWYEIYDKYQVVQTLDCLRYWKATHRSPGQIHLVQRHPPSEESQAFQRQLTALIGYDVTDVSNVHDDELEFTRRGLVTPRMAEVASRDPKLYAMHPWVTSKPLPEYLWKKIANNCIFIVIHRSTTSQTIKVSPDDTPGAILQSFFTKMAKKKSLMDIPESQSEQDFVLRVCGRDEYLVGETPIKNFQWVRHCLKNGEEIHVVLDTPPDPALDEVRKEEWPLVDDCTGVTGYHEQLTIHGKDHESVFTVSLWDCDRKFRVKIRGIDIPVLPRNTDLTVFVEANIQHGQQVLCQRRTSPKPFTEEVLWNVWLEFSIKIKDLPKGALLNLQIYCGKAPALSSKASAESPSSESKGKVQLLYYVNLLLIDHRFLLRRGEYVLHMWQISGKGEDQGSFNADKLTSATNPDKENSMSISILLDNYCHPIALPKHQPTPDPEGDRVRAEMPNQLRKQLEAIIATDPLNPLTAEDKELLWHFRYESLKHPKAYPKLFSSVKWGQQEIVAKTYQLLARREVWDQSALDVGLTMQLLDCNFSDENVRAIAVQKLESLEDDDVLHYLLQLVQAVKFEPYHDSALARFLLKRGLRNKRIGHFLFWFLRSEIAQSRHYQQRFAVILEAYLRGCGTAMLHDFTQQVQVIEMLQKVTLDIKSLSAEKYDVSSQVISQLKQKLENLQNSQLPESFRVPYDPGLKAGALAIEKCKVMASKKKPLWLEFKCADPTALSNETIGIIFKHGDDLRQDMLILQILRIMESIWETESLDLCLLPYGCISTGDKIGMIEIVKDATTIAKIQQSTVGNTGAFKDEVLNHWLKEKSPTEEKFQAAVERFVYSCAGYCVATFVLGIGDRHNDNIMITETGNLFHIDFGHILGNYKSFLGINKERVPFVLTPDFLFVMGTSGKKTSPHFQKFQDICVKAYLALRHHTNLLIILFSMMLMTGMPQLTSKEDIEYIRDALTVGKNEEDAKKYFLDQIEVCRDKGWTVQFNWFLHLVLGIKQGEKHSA
T2 sequence (P42338 whole entry): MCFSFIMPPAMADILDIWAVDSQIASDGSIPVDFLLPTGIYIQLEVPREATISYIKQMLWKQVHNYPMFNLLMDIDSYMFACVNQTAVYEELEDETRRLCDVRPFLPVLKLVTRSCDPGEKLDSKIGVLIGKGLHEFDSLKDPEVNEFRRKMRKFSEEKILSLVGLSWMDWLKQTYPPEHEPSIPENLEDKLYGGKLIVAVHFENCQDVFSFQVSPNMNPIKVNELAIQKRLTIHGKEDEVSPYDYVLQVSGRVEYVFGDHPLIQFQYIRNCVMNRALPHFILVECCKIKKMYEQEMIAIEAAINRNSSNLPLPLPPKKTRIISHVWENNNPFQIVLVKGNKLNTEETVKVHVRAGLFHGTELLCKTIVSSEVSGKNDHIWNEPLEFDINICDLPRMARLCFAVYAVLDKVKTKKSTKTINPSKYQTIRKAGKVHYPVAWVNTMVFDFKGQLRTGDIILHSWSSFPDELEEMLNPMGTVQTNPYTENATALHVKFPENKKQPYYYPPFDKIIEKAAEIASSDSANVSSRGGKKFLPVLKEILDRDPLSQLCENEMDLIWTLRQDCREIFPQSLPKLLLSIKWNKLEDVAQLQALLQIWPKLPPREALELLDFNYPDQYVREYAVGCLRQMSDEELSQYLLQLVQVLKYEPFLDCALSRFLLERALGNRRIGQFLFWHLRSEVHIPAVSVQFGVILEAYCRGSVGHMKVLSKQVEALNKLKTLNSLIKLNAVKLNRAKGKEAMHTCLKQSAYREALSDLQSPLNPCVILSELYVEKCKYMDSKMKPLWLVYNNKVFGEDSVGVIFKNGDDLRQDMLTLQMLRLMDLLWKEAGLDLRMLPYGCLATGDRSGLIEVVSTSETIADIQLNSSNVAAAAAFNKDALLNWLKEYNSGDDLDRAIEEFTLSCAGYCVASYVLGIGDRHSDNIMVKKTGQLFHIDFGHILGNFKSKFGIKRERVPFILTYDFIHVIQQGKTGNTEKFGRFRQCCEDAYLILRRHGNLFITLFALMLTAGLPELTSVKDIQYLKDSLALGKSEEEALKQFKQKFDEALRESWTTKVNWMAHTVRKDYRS
T2 sequence (P27986 whole entry partner): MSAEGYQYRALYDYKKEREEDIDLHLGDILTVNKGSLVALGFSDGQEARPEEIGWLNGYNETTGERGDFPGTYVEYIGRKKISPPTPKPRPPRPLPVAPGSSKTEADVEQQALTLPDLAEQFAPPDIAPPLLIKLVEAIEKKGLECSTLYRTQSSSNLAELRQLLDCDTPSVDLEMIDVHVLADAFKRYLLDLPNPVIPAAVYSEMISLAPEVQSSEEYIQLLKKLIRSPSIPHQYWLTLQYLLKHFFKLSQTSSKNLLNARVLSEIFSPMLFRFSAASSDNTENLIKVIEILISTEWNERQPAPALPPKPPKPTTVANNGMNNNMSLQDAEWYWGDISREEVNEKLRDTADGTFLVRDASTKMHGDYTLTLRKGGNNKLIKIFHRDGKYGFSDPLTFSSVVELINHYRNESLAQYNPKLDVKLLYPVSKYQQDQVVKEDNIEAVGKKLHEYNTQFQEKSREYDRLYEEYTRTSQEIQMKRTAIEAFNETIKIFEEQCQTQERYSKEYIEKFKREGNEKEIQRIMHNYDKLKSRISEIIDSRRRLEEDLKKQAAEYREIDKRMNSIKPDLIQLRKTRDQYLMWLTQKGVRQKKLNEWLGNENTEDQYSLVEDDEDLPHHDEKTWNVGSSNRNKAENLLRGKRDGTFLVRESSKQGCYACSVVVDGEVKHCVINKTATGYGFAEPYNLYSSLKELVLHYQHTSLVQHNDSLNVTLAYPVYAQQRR
PI3Kδ, sequence (O00329 whole entry): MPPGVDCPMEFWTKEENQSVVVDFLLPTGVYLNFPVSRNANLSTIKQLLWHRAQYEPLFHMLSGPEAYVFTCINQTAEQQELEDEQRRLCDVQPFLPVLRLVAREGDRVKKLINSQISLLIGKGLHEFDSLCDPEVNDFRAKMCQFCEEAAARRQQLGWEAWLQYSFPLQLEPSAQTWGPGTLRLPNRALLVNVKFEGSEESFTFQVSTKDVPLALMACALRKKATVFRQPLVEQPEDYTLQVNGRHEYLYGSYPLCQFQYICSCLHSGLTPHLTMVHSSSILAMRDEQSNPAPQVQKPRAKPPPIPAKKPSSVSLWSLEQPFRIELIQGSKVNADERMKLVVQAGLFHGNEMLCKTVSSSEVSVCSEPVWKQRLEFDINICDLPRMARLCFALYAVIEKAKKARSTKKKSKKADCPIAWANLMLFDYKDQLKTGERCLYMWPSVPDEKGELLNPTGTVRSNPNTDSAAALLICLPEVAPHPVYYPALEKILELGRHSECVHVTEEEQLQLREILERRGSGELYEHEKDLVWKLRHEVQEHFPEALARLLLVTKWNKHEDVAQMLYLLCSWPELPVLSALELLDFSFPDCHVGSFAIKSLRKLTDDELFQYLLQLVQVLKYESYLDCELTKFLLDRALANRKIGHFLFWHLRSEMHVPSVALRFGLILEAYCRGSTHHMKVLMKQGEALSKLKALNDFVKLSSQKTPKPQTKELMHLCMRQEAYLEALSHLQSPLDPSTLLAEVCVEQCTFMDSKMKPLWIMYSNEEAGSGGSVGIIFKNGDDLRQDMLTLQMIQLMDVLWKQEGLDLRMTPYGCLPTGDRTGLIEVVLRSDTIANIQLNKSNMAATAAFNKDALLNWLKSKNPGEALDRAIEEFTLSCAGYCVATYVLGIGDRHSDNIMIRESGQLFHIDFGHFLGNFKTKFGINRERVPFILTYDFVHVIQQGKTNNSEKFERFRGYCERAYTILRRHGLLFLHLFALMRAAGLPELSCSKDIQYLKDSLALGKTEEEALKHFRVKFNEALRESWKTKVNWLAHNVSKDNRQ
PI3Kδ, sequence (P27986 whole entry partner): as the sequence (P27986 whole entry partner) above
T1 sequence (P42336 whole entry): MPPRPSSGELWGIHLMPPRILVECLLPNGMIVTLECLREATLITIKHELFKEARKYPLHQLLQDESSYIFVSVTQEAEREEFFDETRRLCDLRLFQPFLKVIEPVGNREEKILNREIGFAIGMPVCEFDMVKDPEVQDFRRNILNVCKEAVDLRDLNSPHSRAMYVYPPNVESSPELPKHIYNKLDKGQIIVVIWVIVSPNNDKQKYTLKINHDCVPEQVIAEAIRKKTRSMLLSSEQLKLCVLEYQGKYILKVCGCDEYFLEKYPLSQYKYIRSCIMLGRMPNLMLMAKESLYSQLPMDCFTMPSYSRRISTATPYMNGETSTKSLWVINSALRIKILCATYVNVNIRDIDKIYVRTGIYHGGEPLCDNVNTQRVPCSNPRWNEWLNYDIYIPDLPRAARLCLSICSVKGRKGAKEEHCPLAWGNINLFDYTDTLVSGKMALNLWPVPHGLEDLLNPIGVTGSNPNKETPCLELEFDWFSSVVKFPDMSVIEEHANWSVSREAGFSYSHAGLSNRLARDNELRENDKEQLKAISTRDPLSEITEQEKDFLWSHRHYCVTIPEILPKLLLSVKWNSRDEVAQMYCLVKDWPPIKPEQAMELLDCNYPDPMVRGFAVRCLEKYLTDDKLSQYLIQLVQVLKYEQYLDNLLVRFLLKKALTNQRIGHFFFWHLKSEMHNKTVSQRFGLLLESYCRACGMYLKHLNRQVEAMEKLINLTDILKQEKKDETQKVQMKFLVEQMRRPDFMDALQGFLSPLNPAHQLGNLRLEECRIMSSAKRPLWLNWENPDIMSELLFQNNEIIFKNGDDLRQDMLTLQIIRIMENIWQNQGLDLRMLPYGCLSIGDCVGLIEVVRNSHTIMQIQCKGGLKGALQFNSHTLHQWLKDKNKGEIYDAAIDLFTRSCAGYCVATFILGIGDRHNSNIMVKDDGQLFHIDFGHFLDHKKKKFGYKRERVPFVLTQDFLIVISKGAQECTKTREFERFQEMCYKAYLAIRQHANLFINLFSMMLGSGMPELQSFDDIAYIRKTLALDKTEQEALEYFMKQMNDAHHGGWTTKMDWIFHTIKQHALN
T1 sequence (P27986 whole entry partner): as the sequence (P27986 whole entry partner) above

A word on the IC50: it is the concentration needed to halve the response being measured. One may read the GI50 as the concentration giving 50% growth inhibition. A lower GI50 goes with more potent growth inhibition. For `Cc1cccc(C)c1N1C(Cn2nc(-c3ccc4[nH]ccc4c3)c3c(N)ncnc32)=Nc2ccccc2S1(=O)=O` [15a, 3-((4-Amino-3-(1H-indol-5-yl)-1H-pyrazolo[3,4-d]pyrimidin-1-yl)methyl)-2-(2,6-dimethylphenyl)-2H-benzo[e][1,2,4]thiadiazine 1,1-dioxide], the IC50 at PI3Kδ was 217 ± 28 nM; against PI3Kα [1] it was > 50000 nM; at PI3Kβ [2], 30600 ± 875 nM; at PI3Kγ [3] it was > 50000 nM. The molecule further returned a GI50 with SU-DHL-6 cells of 2130 ± 90 nM. For the same molecule, the “SU-DHL-6 cell proliferation inhibition (in words)” value in the data set with SU-DHL-6 cells is “significantly inhibited; also recorded: high antiproliferative potency”.
The term melting point denotes the temperature of the solid-liquid transition. On to `COc1ccc(-c2nn(CC3=Nc4ccccc4S(=O)(=O)N3c3c(C)cccc3C)c3ncnc(N)c23)cc1OC` [15b, 3-((4-Amino-3-(3,4-dimethoxyphenyl)-1H-pyrazolo[3,4-d]pyrimidin-1-yl)methyl)-2-(2,6-dimethylphenyl)-2H-benzo[e][1,2,4]thiadiazine 1,1-dioxide], for which the melting point is 220 to 222 °C. Moreover, the IC50 on PI3Kδ was 266 ± 31 nM. The molecule also yielded an IC50 at PI3Kα [1] of 16400 ± 768 nM. The “selectivity for PI3Kδ over PI3Kα” value on PI3Kα [1] (ratio of IC50 values) is “more than 60 fold”. At PI3Kβ [2], the IC50 came to 24200 ± 495 nM. For the same molecule, the “selectivity for PI3Kδ over PI3Kβ” value at PI3Kβ [2] (ratio of IC50 values) is reported as > 90 fold. The molecule also displayed an IC50 against PI3Kγ [3] of 5840 ± 135 nM. Moreover, in the data set on SU-DHL-6 cells, it took 2500 ± 110 nM to inhibit growth by half (GI50) and the “SU-DHL-6 cell proliferation inhibition (in words)” value is “significantly inhibited; also recorded: high antiproliferative potency”.
`COc1ccc(-c2nn(CC3=Nc4ccccc4S(=O)(=O)N3c3c(C)cccc3C)c3ncnc(N)c23)cc1F` [15c, 3-((4-Amino-3-(3-fluoro-4-methoxyphenyl)-1H-pyrazolo[3,4-d]pyrimidin-1-yl)methyl)-2-(2,6-dimethyl-phenyl)-2H-benzo[e][1,2,4]thiadiazine 1,1-dioxide]: at PI3Kδ, the concentration for half-maximal inhibition (IC50) turned out to be 980 ± 45 nM and the “PI3Kδ inhibitory activity (in words)” value is recorded as “marginal activity”.
Turning to `COc1ccc(-c2nn(CC3=Nc4ccccc4S(=O)(=O)N3c3c(C)cccc3C)c3ncnc(N)c23)cn1` [15d, 3-((4-Amino-3-(6-methoxypyridin-3-yl)-1H-pyrazolo[3,4-d]pyrimidin-1-yl)methyl)-2-(2,6-dimethylphenyl)-2H-benzo[e][1,2,4]thiadiazine 1,1-dioxide], the IC50 at PI3Kδ was found to be 498 ± 33 nM.
Regarding `Cc1cccc(C)c1N1C(Cn2nc(-c3ccc4c(c3)OCCO4)c3c(N)ncnc32)=Nc2ccccc2S1(=O)=O` [15e, 3-((4-Amino-3-(2,3-dihydrobenzo[b][1,4]dioxin-6-yl)-1H-pyrazolo[3,4-d]pyrimidin-1-yl)methyl)-2-(2,6-dimethylphenyl)-2H-benzo[e][1,2,4]thiadiazine 1,1-dioxide], the melting point is 225 to 226 °C. Further, on PI3Kδ, the IC50 is > 1000 nM and the “PI3Kδ inhibitory activity (in words)” value was “not tolerated”.
Take `Cc1cccc(C)c1N1C(Cn2nc(-c3ccc4c(c3)OCO4)c3c(N)ncnc32)=Nc2ccccc2S1(=O)=O` [15f, 3-((4-Amino-3-(benzo[d][1,3]dioxol-5-yl)-1H-pyrazolo[3,4-d]pyrimidin-1-yl)methyl)-2-(2,6-dimethyl-phenyl)-2H-benzo[e][1,2,4]thiadiazine 1,1-dioxide]: the melting point was > 250 °C. In addition, on PI3Kδ, the half-maximal inhibitory concentration (IC50) is > 1000 nM and the “PI3Kδ inhibitory activity (in words)” value is “not tolerated”.
Take `COc1ccc(-c2nn(CC3=Nc4ccccc4S(=O)(=O)N3c3c(C)cccc3C)c3ncnc(N)c23)cc1` [15g, 3-((4-Amino-3-(4-methoxyphenyl)-1H-pyrazolo[3,4-d]pyrimidin-1-yl)methyl)-2-(2,6-dimethylphenyl)-2H-benzo[e][1,2,4]thiadiazine 1,1-dioxide]: at PI3Kδ, the IC50 is > 1000 nM and the “PI3Kδ inhibitory activity (in words)” value was “not tolerated”.
The corresponding values for `COc1cccc(-c2nn(CC3=Nc4ccccc4S(=O)(=O)N3c3c(C)cccc3C)c3ncnc(N)c23)c1` [15h, 3-((4-Amino-3-(3-methoxyphenyl)-1H-pyrazolo[3,4-d]pyrimidin-1-yl)methyl)-2-(2,6-dimethylphenyl)-2H-benzo[e][1,2,4]thiadiazine 1,1-dioxide] are > 1000 nM and “not tolerated”.
`Cc1cccc(C)c1N1C(Cn2nc(-c3ccc(OC(F)(F)F)cc3)c3c(N)ncnc32)=Nc2ccccc2S1(=O)=O` [15i, 3-((4-Amino-3-(4-(trifluoromethoxy)phenyl)-1H-pyrazolo[3,4-d]pyrimidin-1-yl)methyl)-2-(2,6-dimethyl-phenyl)-2H-benzo[e][1,2,4]thiadiazine 1,1-dioxide]: the melting point was in the range of 206 to 207 °C. Moreover, at PI3Kδ, the IC50 was > 1000 nM and the “PI3Kδ inhibitory activity (in words)” value is given as “not tolerated”.
With `Cc1cccc(C)c1N1C(Cn2nc(-c3ccccc3)c3c(N)ncnc32)=Nc2ccccc2S1(=O)=O` [15j, 3-((4-Amino-3-phenyl-1H-pyrazolo[3,4-d]pyrimidin-1-yl)methyl)-2-(2,6-dimethylphenyl)-2H-benzo[e]-[1,2,4]thiadiazine 1,1-dioxide], on PI3Kδ, the IC50 was > 1000 nM and the “PI3Kδ inhibitory activity (in words)” value was “not tolerated”.
As to `Cc1cccc(C)c1N1C(Cn2nc(-c3ccc4[nH]ccc4c3)c3c(N)ncnc32)=Nc2ccc(F)cc2S1(=O)=O` [16a, 3-((4-Amino-3-(1H-indol-5-yl)-1H-pyrazolo[3,4-d]pyrimidin-1-yl)methyl)-2-(2,6-dimethylphenyl)-7-fluoro-2H-benzo[e][1,2,4]thiadiazine 1,1-dioxide], the melting point is 132 to 133 °C. Moreover, on PI3Kδ, the IC50 was > 1000 nM and the “PI3Kδ inhibitory activity (in words)” value is given as “lost its activity”.
For `COc1ccc(-c2nn(CC3=Nc4ccc(F)cc4S(=O)(=O)N3c3c(C)cccc3C)c3ncnc(N)c23)cc1OC` [16b, 3-((A-amino-3-(3,4-dimethoxyphenyl)-1H-pyrazolo[3,4-d]pyrimidin-1-yl)methyl)-2-(2,6-dimethylphenyl)-7-fluoro-2H-benzo[e][1,2,4]thiadiazine 1,1-dioxide], the melting point lay in the range of 229 to 230 °C. For the same molecule, at PI3Kδ, the IC50 was 518 ± 62 nM and the “decrease in PI3Kδ potency on introduction of 7-fluorine” value is on record as ~2 fold.
With `COc1ccc(-c2nn(CC3=Nc4ccc(F)cc4S(=O)(=O)N3c3c(C)cccc3C)c3ncnc(N)c23)cc1F` [16c, 3-((4-Amino-3-(3-fluoro-4-methoxyphenyl)-1H-pyrazolo[3,4-d]pyrimidin-1-yl)methyl)-2-(2,6-dimethyl-phenyl)-7-fluoro-2H-benzo[e][1,2,4]thiadiazine 1,1-dioxide], the melting point lay in the range of 201 to 202 °C. Further, on PI3Kδ, the IC50 was found to be 824 ± 76 nM and the “PI3Kδ inhibitory activity (in words)” value is listed as “slight increase in potency”.
Turning to `COc1ccc(-c2nn(CC3=Nc4ccc(F)cc4S(=O)(=O)N3c3c(C)cccc3C)c3ncnc(N)c23)cn1` [16d, 3-((4-Amino-3-(6-methoxypyridin-3-yl)-1H-pyrazolo[3,4-d]pyrimidin-1-yl)methyl)-2-(2,6-dimethylphenyl)-7-fluoro-2H-benzo[e][1,2,4]thiadiazine 1,1-dioxide], at PI3Kδ, the IC50 is 823 ± 69 nM and the “decrease in PI3Kδ potency on introduction of 7-fluorine” value is recorded as ~2 fold.
Consider `CC[C@H](Nc1ncnc2[nH]cnc12)c1nc2cccc(F)c2c(=O)n1-c1ccccc1` [CAL-101, reference compound], for which, in the data set on SU-DHL-6 cells, the GI50 came to 39 ± 11 nM.
For the molecule `Cc1cccc(C)c1-n1c(Cn2nc(-c3ccc4[nH]ccc4c3)c3c(N)ncnc32)nc2cccc(F)c2c1=O` [compound 3], the “selectivity for PI3Kδ over PI3Kγ” value on PI3Kγ [4] is > 40 fold. Moreover, the “selectivity for PI3Kδ over PI3Kα” value at PI3Kα [5] is “more than 3630 fold”. The “selectivity for PI3Kδ over PI3Kβ” value on PI3Kβ [6] was > 390 fold.
Regarding `COc1ccc(-c2nn(Cc3nc4cccc(F)c4c(=O)n3-c3c(C)cccc3C)c3ncnc(N)c23)cc1OC` [compound 4], the “selectivity for PI3Kδ over PI3Kγ” value on PI3Kγ [4] is 7 fold. The “selectivity for PI3Kδ over PI3Kα” value on PI3Kα [5] is on record as “more than 1400 fold”. Moreover, the “selectivity for PI3Kδ over PI3Kβ” value at PI3Kβ [6] is > 820 fold.
